# Results published in PMC5700102, “Primer synthesis by a eukaryotic-like archaeal primase is independent of its Fe-S cluster” (Nature Communications, 2017).
# Target: T1, PriSLX (Saccharolobus solfataricus, UniProt Q97Z83+Q97ZS7)
# T1 construct: gene priS; heterotrimer co-expressed in E. coli Rosetta2(DE3) from pETDuet PriL/PriS and pRSFDuet PriX; no tag mentioned; PriL 307 and PriX 154 residues; with DNA primase large subunit PriL
# T1 sequence (Q97Z83 1-330): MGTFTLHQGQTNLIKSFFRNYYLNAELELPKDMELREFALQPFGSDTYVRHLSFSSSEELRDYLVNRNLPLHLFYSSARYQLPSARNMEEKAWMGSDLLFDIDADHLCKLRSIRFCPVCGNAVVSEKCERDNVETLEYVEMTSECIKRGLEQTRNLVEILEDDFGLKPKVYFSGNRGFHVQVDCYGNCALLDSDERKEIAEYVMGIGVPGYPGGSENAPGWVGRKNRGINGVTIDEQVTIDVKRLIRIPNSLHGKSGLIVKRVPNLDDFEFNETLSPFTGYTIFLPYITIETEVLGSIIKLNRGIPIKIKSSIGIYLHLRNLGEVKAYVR
# T1 sequence (Q97ZS7 1-154): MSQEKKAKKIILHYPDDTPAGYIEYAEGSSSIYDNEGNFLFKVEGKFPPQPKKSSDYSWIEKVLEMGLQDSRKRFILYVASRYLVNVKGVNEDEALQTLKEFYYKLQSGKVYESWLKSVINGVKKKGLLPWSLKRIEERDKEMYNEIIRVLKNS
# T1 sequence (Q9UWW1 1-307 partner): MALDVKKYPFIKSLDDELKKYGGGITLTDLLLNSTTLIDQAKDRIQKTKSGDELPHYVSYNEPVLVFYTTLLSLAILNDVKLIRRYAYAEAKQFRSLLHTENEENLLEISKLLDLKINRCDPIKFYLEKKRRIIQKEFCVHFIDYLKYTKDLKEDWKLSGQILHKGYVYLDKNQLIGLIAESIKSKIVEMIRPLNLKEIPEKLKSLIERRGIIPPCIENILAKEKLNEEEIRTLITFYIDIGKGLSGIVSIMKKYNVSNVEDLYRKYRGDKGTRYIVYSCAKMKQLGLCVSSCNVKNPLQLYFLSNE
# Assay: X-ray crystal structure, […] Å
# Assay type: binding
# Settings: two molecules bound: PriS active site (elongation site) and PriX initiation site at the PriX-PriS interface; MnCl2
compound,measurement,value
Nc1ncnc2c1ncn2[C@@H]1O[C@H](COP(=O)(O)CP(=O)(O)OP(=O)(O)O)[C@@H](O)[C@H]1O [AMPCPP],"X-ray crystal structure, 2.9 Å",The first AMPCPP was bound in the active site of PriS
